Measurements as given in ChEMBL document CHEMBL3885881, “DrugMatrix”.

Organism: Rattus norvegicus
Assay: DrugMatrix - Regimen: Daily Repeat
Format: toxicity, organism-based, Sprague-Dawley
Design: regimen Daily Repeat, gender Male, age 6-8 weeks
Details: in vivo, po, route oral GAVAGE, vehicle .5 % CMC; for BASOPHIL / EOSINOPHIL / ERYTHROCYTE COUNT / HEMATOCRIT / LEUKOCYTE COUNT / LYMPHOCYTE / MEAN CORPUSCULAR HEMOGLOBIN / MEAN CORPUSCULAR HEMOGLOBIN CONCENTRATION / MONOCYTE / NEUTROPHIL / PLATELET COUNT / HEMOGLOBIN / MEAN CORPUSCULAR VOLUME: tissue Blood; for ALANINE AMINOTRANSFERASE / ALBUMIN / ASPARTATE AMINOTRANSFERASE / BLOOD UREA NITROGEN / CHOLESTEROL / CREATINE PHOSPHOKINASE / CREATININE / GLUCOSE / PHOSPHORUS / POTASSIUM / SODIUM / TOTAL PROTEIN / ALKALINE PHOSPHATASE: tissue Plasma
[1] = 0 mg/kg, 72 h, dose level Control, time 3 day
[2] = 0 mg/kg, 120 h, dose level Control, time 5 day
[3] = […], 72 h, dose 0.77 mg/Kg, dose level Low, time 3 day
[4] = […], 72 h, dose 7.5 mg/Kg, dose level High, time 3 day
[5] = […], 120 h, dose 0.77 mg/Kg, dose level Low, time 5 day
[6] = […], 120 h, dose 7.5 mg/Kg, dose level High, time 5 day

## IVERMECTIN
[1]
  BASOPHIL: 0%
  EOSINOPHIL: 0.33%
  ERYTHROCYTE COUNT: 6.03 x10E6/uL
  HEMATOCRIT: 38.8%
  LEUKOCYTE COUNT: 10.64 x10E3/uL
  LYMPHOCYTE: 83.33%
  MEAN CORPUSCULAR HEMOGLOBIN: 23.64 pg
  MEAN CORPUSCULAR HEMOGLOBIN CONCENTRATION: 36.74 G/DL
  MONOCYTE: 3.33%
  NEUTROPHIL: 13%
  PLATELET COUNT: 1264.4 x10E3/uL
  ALANINE AMINOTRANSFERASE: 38.83 u/L
  ALBUMIN: 3.55 G/DL
  ASPARTATE AMINOTRANSFERASE: 66.17 u/L
  BLOOD UREA NITROGEN: 15.67 mg/dL
  CHOLESTEROL: 76.5 mg/dL
  CREATINE PHOSPHOKINASE: 166.83 u/L
  CREATININE: 0.52 mg/dL
  GLUCOSE: 173.17 mg/dL
  PHOSPHORUS: 11.68 mg/dL
  POTASSIUM: 6.43 MEQ/L
  SODIUM: 149.5 MEQ/L
  TOTAL PROTEIN: 5.93 G/DL
[2]
  BASOPHIL: 0%
  EOSINOPHIL: 0%
  ERYTHROCYTE COUNT: 5.88 x10E6/uL
  HEMATOCRIT: 37.87%
  HEMOGLOBIN: 14.48 G/DL
  LEUKOCYTE COUNT: 12.43 x10E3/uL
  LYMPHOCYTE: 84.17%
  MEAN CORPUSCULAR HEMOGLOBIN: 24.65 pg
  MEAN CORPUSCULAR HEMOGLOBIN CONCENTRATION: 38.25 G/DL
  MEAN CORPUSCULAR VOLUME: 64.47 fL
  MONOCYTE: 4.33%
  NEUTROPHIL: 11.5%
  PLATELET COUNT: 1182.33 x10E3/uL
  ALANINE AMINOTRANSFERASE: 38.67 u/L
  ALBUMIN: 3.55 G/DL
  ALKALINE PHOSPHATASE: 342.5 u/L
  ASPARTATE AMINOTRANSFERASE: 63.33 u/L
  BLOOD UREA NITROGEN: 15.5 mg/dL
  CHOLESTEROL: 75.5 mg/dL
  CREATINE PHOSPHOKINASE: 142.5 u/L
  CREATININE: 0.62 mg/dL
  GLUCOSE: 165.17 mg/dL
  PHOSPHORUS: 10.87 mg/dL
  POTASSIUM: 6.85 MEQ/L
  SODIUM: 150.17 MEQ/L
  TOTAL PROTEIN: 5.93 G/DL
[3]
  BASOPHIL: 0%
  EOSINOPHIL: 0%
  ERYTHROCYTE COUNT: 5.86 x10E6/uL
  HEMATOCRIT: 37.37%
  HEMOGLOBIN: 14 G/DL
  LEUKOCYTE COUNT: 13.5 x10E3/uL
  LYMPHOCYTE: 81.33%
  MEAN CORPUSCULAR HEMOGLOBIN: 23.97 pg
  MEAN CORPUSCULAR HEMOGLOBIN CONCENTRATION: 37.5 G/DL
  MONOCYTE: 4%
  NEUTROPHIL: 14.67%
  PLATELET COUNT: 1163.33 x10E3/uL
  ALANINE AMINOTRANSFERASE: 35 u/L
  ALKALINE PHOSPHATASE: 418 u/L
  ASPARTATE AMINOTRANSFERASE: 56 u/L
  BLOOD UREA NITROGEN: 12.67 mg/dL
  CHOLESTEROL: 77.33 mg/dL
  CREATINE PHOSPHOKINASE: 149.33 u/L
  CREATININE: 0.5 mg/dL
  PHOSPHORUS: 13.27 mg/dL
  POTASSIUM: 6.9 MEQ/L
  SODIUM: 150.33 MEQ/L
  TOTAL PROTEIN: 5.73 G/DL
[4]
  BASOPHIL: 0%
  EOSINOPHIL: 0%
  ERYTHROCYTE COUNT: 6.06 x10E6/uL
  HEMATOCRIT: 37.9%
  HEMOGLOBIN: 13.7 G/DL
  LEUKOCYTE COUNT: 13 x10E3/uL
  LYMPHOCYTE: 92%
  MEAN CORPUSCULAR HEMOGLOBIN: 22.6 pg
  MEAN CORPUSCULAR HEMOGLOBIN CONCENTRATION: 36.1 G/DL
  MONOCYTE: 4%
  NEUTROPHIL: 4%
  PLATELET COUNT: 1400 x10E3/uL
  ALANINE AMINOTRANSFERASE: 31 u/L
  ALKALINE PHOSPHATASE: 420 u/L
  ASPARTATE AMINOTRANSFERASE: 57 u/L
  CHOLESTEROL: 70 mg/dL
  CREATINE PHOSPHOKINASE: 190 u/L
  CREATININE: 0.5 mg/dL
  PHOSPHORUS: 13.3 mg/dL
  POTASSIUM: 6.93 MEQ/L
  SODIUM: 150.33 MEQ/L
[5]
  BASOPHIL: 0%
  EOSINOPHIL: 0%
  ERYTHROCYTE COUNT: 5.85 x10E6/uL
  HEMATOCRIT: 37.25%
  HEMOGLOBIN: 14 G/DL
  LEUKOCYTE COUNT: 11.3 x10E3/uL
  LYMPHOCYTE: 94%
  MEAN CORPUSCULAR HEMOGLOBIN: 23.95 pg
  MEAN CORPUSCULAR HEMOGLOBIN CONCENTRATION: 37.6 G/DL
  MONOCYTE: 0%
  NEUTROPHIL: 6%
  PLATELET COUNT: 1300.5 x10E3/uL
  ALANINE AMINOTRANSFERASE: 36.33 u/L
  ALKALINE PHOSPHATASE: 489 u/L
  ASPARTATE AMINOTRANSFERASE: 59.67 u/L
  BLOOD UREA NITROGEN: 15.67 mg/dL
  CHOLESTEROL: 69.67 mg/dL
  CREATINE PHOSPHOKINASE: 135.67 u/L
  CREATININE: 0.53 mg/dL
  GLUCOSE: 195.33 mg/dL
  PHOSPHORUS: 13.07 mg/dL
  POTASSIUM: 6.87 MEQ/L
  TOTAL PROTEIN: 5.7 G/DL
[6]
  BASOPHIL: 0%
  EOSINOPHIL: 0.33%
  ERYTHROCYTE COUNT: 6.11 x10E6/uL
  HEMATOCRIT: 40.07%
  HEMOGLOBIN: 15 G/DL
  LEUKOCYTE COUNT: 16.37 x10E3/uL
  LYMPHOCYTE: 90%
  MEAN CORPUSCULAR HEMOGLOBIN CONCENTRATION: 37.43 G/DL
  MEAN CORPUSCULAR VOLUME: 65.57 fL
  MONOCYTE: 1%
  PLATELET COUNT: 1335.33 x10E3/uL
  ALANINE AMINOTRANSFERASE: 29.33 u/L
  ALKALINE PHOSPHATASE: 361 u/L
  ASPARTATE AMINOTRANSFERASE: 51.67 u/L
  BLOOD UREA NITROGEN: 15.67 mg/dL
  CHOLESTEROL: 64.67 mg/dL
  CREATINE PHOSPHOKINASE: 155.67 u/L
  CREATININE: 0.53 mg/dL
  GLUCOSE: 166.33 mg/dL
  PHOSPHORUS: 13.37 mg/dL
  POTASSIUM: 7.1 MEQ/L
  SODIUM: 147 MEQ/L
  TOTAL PROTEIN: 5.7 G/DL
